# Experimental data as given in PubChem BioAssay (NCI).
#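 96-well plates; 48 h exposure; 5 concentrations. Endpoints by linear interpolation between flanking doses. Not reached: highest tested concentration assigned. The concentration for 50% growth inhibition is given as GI50. TGI denotes the concentration required for complete inhibition of growth.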
# Tests used:
# Test in all cases: growth of human tumour cells (NCI), 48 h
# M14 melanoma = tested on: M14 melanoma
# SNB-19 CNS = tested on: SNB-19 CNS
# SR leukemia = tested on: SR leukemia
# A498 renal = tested on: A498 renal
# SK-MEL-2 melanoma = tested on: SK-MEL-2 melanoma
# HOP-62 NSCLC = tested on: HOP-62 NSCLC
# SN12C renal = tested on: SN12C renal
# HS 578T breast = tested on: HS 578T breast
# HL-60(TB) leukemia = tested on: HL-60(TB) leukemia
# OVCAR-4 ovarian = tested on: OVCAR-4 ovarian
# SK-MEL-28 melanoma = tested on: SK-MEL-28 melanoma
# 786-0 renal = tested on: 786-0 renal
# COLO 205 colon = tested on: COLO 205 colon
# NCI-H226 lung = tested on: NCI-H226 lung
# SF-539 CNS = tested on: SF-539 CNS
# KM12 colon = tested on: KM12 colon
# U251 CNS = tested on: U251 CNS
# SK-MEL-5 melanoma = tested on: SK-MEL-5 melanoma
# NCI-H522 lung = tested on: NCI-H522 lung
# NCI-H23 lung = tested on: NCI-H23 lung
# LOX IMVI melanoma = tested on: LOX IMVI melanoma
# HCT-116 colon = tested on: HCT-116 colon
# SF-268 CNS = tested on: SF-268 CNS
# HCC-2998 colon = tested on: HCC-2998 colon
# UACC-62 melanoma = tested on: UACC-62 melanoma
# HOP-92 NSCLC = tested on: HOP-92 NSCLC
# K-562 leukemia = tested on: K-562 leukemia
# TK-10 renal = tested on: TK-10 renal
# NCI/ADR-RES ovarian = tested on: NCI/ADR-RES ovarian
# OVCAR-3 ovarian = tested on: OVCAR-3 ovarian
# ACHN renal = tested on: ACHN renal
# RPMI-8226 leukemia = tested on: RPMI-8226 leukemia
# MDA-MB-435 = tested on: MDA-MB-435
# MOLT-4 leukemia = tested on: MOLT-4 leukemia
# OVCAR-8 ovarian = tested on: OVCAR-8 ovarian
# A549 NSCLC = tested on: A549 NSCLC
# SK-OV-3 ovarian = tested on: SK-OV-3 ovarian
# T-47D breast = tested on: T-47D breast
# SW-620 colon = tested on: SW-620 colon
# MALME-3M melanoma = tested on: MALME-3M melanoma
# RXF 393 renal = tested on: RXF 393 renal
# MDA-MB-231 breast = tested on: MDA-MB-231 breast
# DU-145 prostate = tested on: DU-145 prostate
# UO-31 renal = tested on: UO-31 renal
# HT29 colon = tested on: HT29 colon
# IGROV1 ovarian = tested on: IGROV1 ovarian
# NCI-H460 lung = tested on: NCI-H460 lung
# EKVX NSCLC = tested on: EKVX NSCLC
# OVCAR-5 ovarian = tested on: OVCAR-5 ovarian
# SNB-75 CNS = tested on: SNB-75 CNS
# UACC-257 melanoma = tested on: UACC-257 melanoma
# BT-549 breast = tested on: BT-549 breast
# PC-3 prostate = tested on: PC-3 prostate
# MCF7 breast = tested on: MCF7 breast
# HCT-15 colon = tested on: HCT-15 colon
# SF-295 CNS = tested on: SF-295 CNS
# CCRF-CEM leukemia = tested on: CCRF-CEM leukemia
structure (smiles),measurement,setting,value
CCCc1n(Cc2ccc3ccccc3n2)cc[n+]1Cc1ccc2ccccc2c1,GI50,M14 melanoma,0.637 µM
same,TGI,M14 melanoma,2.76 µM
same,GI50,SNB-19 CNS,0.551 µM
same,TGI,SNB-19 CNS,11.4 µM
same,GI50,SR leukemia,0.472 µM
same,TGI,SR leukemia,3.03 µM
same,GI50,A498 renal,1.81 µM
same,TGI,A498 renal,6.68 µM
same,GI50,SK-MEL-2 melanoma,1.06 µM
same,TGI,SK-MEL-2 melanoma,2.85 µM
same,GI50,HOP-62 NSCLC,1.63 µM
same,TGI,HOP-62 NSCLC,5.38 µM
same,GI50,SN12C renal,0.478 µM
same,TGI,SN12C renal,3.51 µM
same,GI50,HS 578T breast,2.13 µM
same,TGI,HS 578T breast,9.42 µM
same,GI50,HL-60(TB) leukemia,0.312 µM
same,TGI,HL-60(TB) leukemia,0.933 µM
same,GI50,OVCAR-4 ovarian,0.357 µM
same,TGI,OVCAR-4 ovarian,6.59 µM
same,GI50,SK-MEL-28 melanoma,1.24 µM
same,TGI,SK-MEL-28 melanoma,6.23 µM
same,GI50,786-0 renal,2.93 µM
same,TGI,786-0 renal,10.2 µM
same,GI50,COLO 205 colon,0.319 µM
same,TGI,COLO 205 colon,1.34 µM
same,GI50,NCI-H226 lung,1.2 µM
same,TGI,NCI-H226 lung,7.6 µM
same,GI50,SF-539 CNS,0.861 µM
same,TGI,SF-539 CNS,10.4 µM
same,GI50,KM12 colon,0.626 µM
same,TGI,KM12 colon,2.5 µM
same,GI50,U251 CNS,0.38 µM
same,TGI,U251 CNS,2.54 µM
same,GI50,SK-MEL-5 melanoma,0.466 µM
same,TGI,SK-MEL-5 melanoma,1.69 µM
same,GI50,NCI-H522 lung,0.249 µM
same,TGI,NCI-H522 lung,1.13 µM
same,GI50,NCI-H23 lung,0.479 µM
same,TGI,NCI-H23 lung,10.6 µM
same,GI50,LOX IMVI melanoma,1.07 µM
same,TGI,LOX IMVI melanoma,2.95 µM
same,GI50,HCT-116 colon,1.06 µM
same,TGI,HCT-116 colon,7.05 µM
same,GI50,SF-268 CNS,1.01 µM
same,TGI,SF-268 CNS,10.6 µM
same,GI50,HCC-2998 colon,0.564 µM
same,TGI,HCC-2998 colon,2.33 µM
same,GI50,UACC-62 melanoma,0.574 µM
same,TGI,UACC-62 melanoma,2.39 µM
same,GI50,HOP-92 NSCLC,0.188 µM
same,TGI,HOP-92 NSCLC,1.12 µM
same,GI50,K-562 leukemia,0.428 µM
same,TGI,K-562 leukemia,8.27 µM
same,GI50,TK-10 renal,1.21 µM
same,TGI,TK-10 renal,2.81 µM
same,GI50,NCI/ADR-RES ovarian,32.8 µM
same,TGI,NCI/ADR-RES ovarian,> 100 µM
same,GI50,OVCAR-3 ovarian,0.452 µM
same,TGI,OVCAR-3 ovarian,1.96 µM
same,GI50,ACHN renal,4.08 µM
same,TGI,ACHN renal,15.6 µM
same,GI50,RPMI-8226 leukemia,0.275 µM
same,TGI,RPMI-8226 leukemia,1.62 µM
same,GI50,MDA-MB-435,0.443 µM
same,TGI,MDA-MB-435,2.17 µM
same,GI50,MOLT-4 leukemia,0.708 µM
same,TGI,MOLT-4 leukemia,6.08 µM
same,GI50,OVCAR-8 ovarian,0.779 µM
same,TGI,OVCAR-8 ovarian,4.65 µM
same,GI50,A549 NSCLC,1.88 µM
same,TGI,A549 NSCLC,11.8 µM
same,GI50,SK-OV-3 ovarian,1.26 µM
same,TGI,SK-OV-3 ovarian,4.02 µM
same,GI50,T-47D breast,0.307 µM
same,TGI,T-47D breast,5.55 µM
same,GI50,SW-620 colon,1.91 µM
same,TGI,SW-620 colon,11.7 µM
same,GI50,MALME-3M melanoma,0.526 µM
same,TGI,MALME-3M melanoma,2.75 µM
same,GI50,RXF 393 renal,2.98 µM
same,TGI,RXF 393 renal,14.6 µM
same,GI50,MDA-MB-231 breast,1.05 µM
same,TGI,MDA-MB-231 breast,2.86 µM
same,GI50,DU-145 prostate,1.52 µM
same,TGI,DU-145 prostate,12.8 µM
same,GI50,UO-31 renal,12 µM
same,TGI,UO-31 renal,25.3 µM
same,GI50,HT29 colon,0.409 µM
same,TGI,HT29 colon,2.07 µM
same,GI50,IGROV1 ovarian,0.807 µM
same,TGI,IGROV1 ovarian,3.48 µM
same,GI50,NCI-H460 lung,0.658 µM
same,TGI,NCI-H460 lung,10.6 µM
same,GI50,EKVX NSCLC,2.16 µM
same,TGI,EKVX NSCLC,14.9 µM
same,GI50,OVCAR-5 ovarian,2.39 µM
same,TGI,OVCAR-5 ovarian,12.5 µM
same,GI50,SNB-75 CNS,0.41 µM
same,TGI,SNB-75 CNS,3.47 µM
same,GI50,UACC-257 melanoma,0.347 µM
same,TGI,UACC-257 melanoma,1.72 µM
same,GI50,BT-549 breast,0.23 µM
same,TGI,BT-549 breast,1.43 µM
same,GI50,PC-3 prostate,0.487 µM
same,TGI,PC-3 prostate,4.96 µM
same,GI50,MCF7 breast,0.647 µM
same,TGI,MCF7 breast,4.7 µM
same,GI50,HCT-15 colon,12 µM
same,TGI,HCT-15 colon,25.4 µM
same,GI50,SF-295 CNS,2.06 µM
same,TGI,SF-295 CNS,5.76 µM
same,GI50,CCRF-CEM leukemia,0.688 µM
same,TGI,CCRF-CEM leukemia,6.1 µM
